{"source": "patent US7368254B2", "about": "“Lipid-based systems for targeting diagnostic agents” (Liplasome Pharma A/S, priority 2000, dated 2008)", "key": {"[1]": {"molecular_target": "T1, Snake venom PLA2 (Agkistrodon piscivorus piscivorus) (Agkistrodon piscivorus piscivorus, UniProt P51972)", "T1 construct": "Purified snake-venom phospholipase A2; from tissue", "T1 sequence (P51972 1-123)": "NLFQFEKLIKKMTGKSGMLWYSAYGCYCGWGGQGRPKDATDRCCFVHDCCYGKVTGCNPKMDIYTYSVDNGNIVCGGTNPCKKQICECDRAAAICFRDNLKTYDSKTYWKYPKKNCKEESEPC", "experiment": "PLA2-controlled release of calcein across non-hydrolysable D-O-SPC target membrane (carrier liposomes or micelles)", "assay_type": "biochemical", "details": "carrier liposomes 25 μM; 25 nM PLA2; 37° C.; FIG. 12a", "experimental": "Multilamellar model membrane target liposomes were made in the presence of fluorescent calcein in a self-quenching concentration of 20 mM by hydrating a film of 1,2-O-dioctadecyl-sn-glycero-3-phosphatidylcholines (D-O-SPC) in a HEPES buffer solution at pH=7.5 for one hour at 10° C. above the phase transition temperature (Tm=55° C.). […] The unilamellar liposomes were rapidly cooled to a temperature below the transition temperature, and the calcein-containing liposomes were separated from free calcein using a chromatographic column packed with Sephadex G-50. […] Calcein release from the target liposomes is determined by measuring the fluorescent intensity at 520 nm after excitation at 492 nm.\nUnilamellar liposomes were made by extruding the multilamellar liposomes ten times through two stacked 100 nm polycarbonate filters."}, "[2]": {"details": "i.v., 50 mg/kg", "experimental": "Groups of mice (n=5/group; weight 18-22 g) were treated i.v. with buffer (PBS), ET-18-OCH3 (50 mg/kg), and liposomes composed of 1-O-DPPC with 5 mol % 1-O-DPPE-PEG2000 (68.7 and 137.5 mg/kg). 30 min after injection, 100 μl blood was collected into heparinised tubes directly from decapitated, CO2-anesthetised mice. The blood was centrifuged at 500×G for 10 min, and plasma was removed and stored at −20° C. until analysed.\n25 μl plasma was mixed with 2,5 ml PBS or 2.5 ml 10% triton X-100."}, "[3]": {"test_system": "human red blood cells (RBC)", "experiment": "Hemolysis assay", "details": "37° C., 20 hours, FIG. 6", "method": "Briefly, each sample was serially diluted with phosphate buffered saline (PBS), and 0.5 ml of each dilute suspension was mixed with 0.5 ml washed human red blood cells (RBC) [4% in PBS (v/v)]. Sample and standard were placed in a 37° C. incubator and agitated for 20 hours. Tubes were centrifuged at low speed (2000×G) for 10 minutes and 200 μl of the supernatant was quantitated by absorbance at 550 nm. 100 percent hemolysis was defined as the maximum amount of hemolysis obtained from the detergent Triton X-100.\nThe lipids were hydrated in phosphate buffered saline (PBS). 1-O-octadecyl-2-O-methyl-sn-glycero-3-phosphocholine (ET-18-OCH3) in PBS was included in the assay as a reference.\nBriefly, each sample was serially diluted with PBS, and 0.5 ml of each dilute suspension of 1-O-DPPC liposomes were mixed with 0.5 ml washed human red blood cells (RBC) [4% in PBS (v/v)]. For controls, 0.5 ml of the red blood cell suspension was mixed with either 0.5 ml buffer solution (negative hemolysis control) or 0.5 ml water (positive hemolysis control). Samples and standard were placed in a 37° C. incubator and agitated for 20 hours. Tubes were centrifuged at low speed (2000×G) for 10 minutes to form RBCs pellets. 200 μl of the supernatant was quantitated by absorbance at 550 nm using a Perkin-Elmer 320 scanning spectrophotometer. […]"}, "extracellular PLA2": {"test_system": "extracellular PLA2", "experiment": "Effect of cholesterol incorporated into liposomes on extracellular PLA2 activity (data not shown)", "assay_type": "biochemical", "from_the_text": "Short-chain phospholipids, such as didecanoyl phosphatidylcholine (DCPC), activate extracellular PLA2."}, "[4]": {"experiment": "Calcein release across target membrane on adding lyso-phospholipid and fatty acid, in the absence of PLA2", "details": "target membranes 25 μM; 39° C.; pH 7.5; FIG. 13", "method": "Total release after 20 min of the fluorescent model drug and/or contrast agent calcein across the target membrane as a function of adding increasing amounts of lyso-palmitoyl phospholipid and palmitic acid, separately, and in a 1:1 mixture. The concentration of the target membranes is 25 μM in a HEPES buffer with pH=7.5 at a temperature of 39° C.\nThe experimental model system consists of bare liposomes, polymer-coated liposome carrier and a model target membrane. The carrier is a 100 nm unilamellar liposome made of dipalmitoyl phosphatidylcholine lipids (DPPC) with 2.5 mol % lipopolymer of the type dipalmitoyl phosphatidylethanolamine (DPPE)-PEG2000. The target membrane is another liposome made of 1,2-O-dioctadecyl-sn-glycero-phosphatidylcholine (D-O-SPC) which is a phospholipid where the acyl linkages of the stearoyl chains are ether bonds. In contrast to DPPC, D-O-SPC is inert towards PLA2-catalysed hydrolysis thereby mimicking the stability of an intact target cell membrane toward degradation by its own enzymes. […] The permeation of calcein across the D-O-SPC target membrane is subsequently monitored by the increase in fluorescence. […]"}, "[5]": {"molecular_target": "T2, phospholipase A2 (A. piscivorus piscivorus) (Agkistrodon piscivorus piscivorus, UniProt P51972)", "T2 sequence (P51972 1-123)": "T1 sequence (P51972 1-123)", "details": "0.150 mM micelles, 150 nM PLA2, 45° C.", "experimental": "The hydrolysis of micelles composed DSPE-PEG750 was followed by analysis of the amount of stearic acid generated. The catalytic reaction was initiated by adding 8.9 μL of a 42 μM PLA2 (150 nM) stock solution to 2.5 ml a thermostated micelle suspension of DSPE-PEG750 (0.150 mM) equilibrated at 45° C. for 600 seconds prior to addition of PLA2. The characteristic burst behaviour of PLA2 towards the micelles is signalled by a sudden increase in the intrinsic fluorescence from PLA2 at 340 nm after excitation at 285 nm followed by a concomitant decrease in the 90° light scattering from the lipid suspension (Hønger et al., Biochemistry 35, 9003-9006). Samples for HPLC analysis of the amount of stearic acid generated were taken before adding PLA2 and 100 sec after the observed lag-time. […] HPLC analysis was made using a 5 μm diol column, a mobile phase composed of chloroform/methanol/water (730:230:30, v/v) and an evaporative light scattering detector (see example 2)."}}, "note": "Entries after “also recorded” stand apart in the source; their conditions may differ."}
{"compound": "CCCCCCCCCC(=O)OC[C@H](COP(=O)([O-])OCC[N+](C)(C)C)OC(=O)CCCCCCCCC", "note": "[DCPC, didecanoyl phosphatidylcholine]", "values": [{"measurement": "rate of calcein release across target membrane versus bare DPPC carriers", "setting": "[1]", "value": "very fast; also recorded: further augmentation of the rate of release"}]}
{"compound": "CCCCCCCCCCCCCCCCCCOC[C@H](COP(=O)([O-])OCC[N+](C)(C)C)OC", "note": "[ET-18-OCH3]", "values": [{"measurement": "outcome of treated mice (in words)", "setting": "[2]", "value": "died within the 30 minutes period"}, {"measurement": "hemolysis at low concentrations", "setting": "[3]", "value": "significant degree of hemolysis"}]}
{"compound": "CC(C)CCC[C@@H](C)[C@H]1CC[C@H]2[C@@H]3CC=C4C[C@@H](O)CC[C@]4(C)[C@H]3CC[C@]12C", "note": "[cholesterol]", "values": [{"measurement": "effect on extracellular PLA2", "setting": "extracellular PLA2; large amount (≈20 mol %) incorporated into liposomes", "value": "deactivated"}, {"measurement": "effect on extracellular PLA2", "setting": "extracellular PLA2; small amount (≈3 mol %)", "value": "activates"}]}
{"compound": "CCCCCCCCCCCCCCCC(=O)O", "note": "[fatty acid, palmitic acid]", "values": [{"measurement": "rate of calcein release across target membrane in the absence of PLA2", "setting": "[4]", "value": "increased rate of calcein release"}]}
{"compound": "di-octadecanoyl-sn-glycero-3-phosphoethanolamine-N-[methoxy(polyethylene glycol)-750 [DSPE-PEG750]", "values": [{"measurement": "percentage hydrolysis of DSPE-PEG750 to lyso-SPE-PEG750 and stearic acid", "setting": "[5]; 100 sec after lag-time", "value": 100, "unit": "%"}, {"measurement": "observed lag time", "setting": "[5]", "value": 10, "unit": "s"}]}
